Reference: patent publication US10052320B2, “Substituted quinoxalines as FGFR kinase inhibitors” (ASTEX THERAPEUTICS LIMITED, priority 2011, dated 2018)
Like-named read-outs stand apart in the source and are kept apart here.

What was measured:
[1] = tested on: Ba/F3-Flt3-transfected cells in the presence of 10 ng/ml murine IL3; assay: Ba/F3-Flt3 (plus IL3) cellular proliferation counterscreen, Alamar Blue; assay type: cell-based; details: Mus musculus, read-out: BAF3-FLT3 (PLUS IL3) 96 well pIC50 (converted)
[2] = molecular target: Ba/F3-KDR-transfected cells (Homo sapiens, UniProt P35968); assay: Ba/F3-KDR (minus IL3) cellular proliferation assay, Alamar Blue; assay type: cell-based
Description: Ba/F3-KDR (Minus IL3 or Plus IL3) (Cellular Proliferation Assay)
(§1) In a 384 well plate, 100 nl of compound dilution in DMSO was sprayed before adding 50 μl cell culture medium (phenol red free RPMI-1640, 10% FBS, 2 mM L-Glutamine and 50 μg/ml Gentamycin) containing 20000 cells per well of Ba/F3-KDR-transfected cells. Cells were put in an incubator at 37° C. and 5% CO2. After 24 hours, 10 μl of Alamar Blue solution (0.5 mM K3Fe(CN)6, 0.5 mM KaFe(CN)6, 0.15 mM Resazurin and 100 mM Phosphate Buffer) was added to the wells, incubated for 4 hours at 37° C. and 5% CO2 before RFU's (Relative Fluorescence Units) (ex. 540 nm., em. 590 nm.) were measured in a flurorescence plate reader.
(§2) As a counterscreen the same experiment was performed in the presence of 10 ng/ml murine IL3.
as §1, with “a 96” for “a 384”, “plate, 180” for “plate, 100 nl of compound dilution in DMSO was sprayed before adding 50”, “containing 10000” for “containing 20000”, “Ba/F3-KDR-transfected cells were pipette and 20 μl of compound dilution in DMSO was added.” for “Ba/F3-KDR-transfected cells.”, “hours, 40” for “hours, 10”, “CO2” for “CO2 before”

KDR (h) (VEGFR2) = KDR (h) (VEGFR2) (Homo sapiens, UniProt P35968); assay: KDR (VEGFR2) (enzymatic assay), TR-FRET; assay type: biochemical
Description: KDR (VEGFR2) (Enzymatic Assay)
In a final reaction volume of 30 μL, KDR (h) (150 ng/ml) was incubated with 50 mM HEPES pH 7.5, 6 mM MnCl2, 1 mM DTT, 0.1 mM Na3VO4, 0.01% Triton-X-100, 500 nM Btn-Flt3 and 3 μM ATP in the presence of compound (1% DMSO final). After incubation for 120 minutes at room temperature the reaction was stopped with 2.27 nM EU-anti P-Tyr, 7 mM EDTA, 31.25 nM SA-XL-665 and 0.02% BSA which was present for 60 minutes at room temperature. Time-Resolved Fluorescence Resonance Energy Transfer (TR-FRET) signal (ex340 nm. Em 620 nm, em 655 nm) was measured afterwards and results are expressed in RFU (Relative Fluorescence Units).

[3] = molecular target: T1, Ba/F3-Flt3-transfected cells (Homo sapiens, UniProt P36888, cells depend on it, form not given); assay: Ba/F3-Flt3 (minus IL3) cellular proliferation assay, Alamar Blue; assay type: cell-based
T1 sequence (P36888 1-993): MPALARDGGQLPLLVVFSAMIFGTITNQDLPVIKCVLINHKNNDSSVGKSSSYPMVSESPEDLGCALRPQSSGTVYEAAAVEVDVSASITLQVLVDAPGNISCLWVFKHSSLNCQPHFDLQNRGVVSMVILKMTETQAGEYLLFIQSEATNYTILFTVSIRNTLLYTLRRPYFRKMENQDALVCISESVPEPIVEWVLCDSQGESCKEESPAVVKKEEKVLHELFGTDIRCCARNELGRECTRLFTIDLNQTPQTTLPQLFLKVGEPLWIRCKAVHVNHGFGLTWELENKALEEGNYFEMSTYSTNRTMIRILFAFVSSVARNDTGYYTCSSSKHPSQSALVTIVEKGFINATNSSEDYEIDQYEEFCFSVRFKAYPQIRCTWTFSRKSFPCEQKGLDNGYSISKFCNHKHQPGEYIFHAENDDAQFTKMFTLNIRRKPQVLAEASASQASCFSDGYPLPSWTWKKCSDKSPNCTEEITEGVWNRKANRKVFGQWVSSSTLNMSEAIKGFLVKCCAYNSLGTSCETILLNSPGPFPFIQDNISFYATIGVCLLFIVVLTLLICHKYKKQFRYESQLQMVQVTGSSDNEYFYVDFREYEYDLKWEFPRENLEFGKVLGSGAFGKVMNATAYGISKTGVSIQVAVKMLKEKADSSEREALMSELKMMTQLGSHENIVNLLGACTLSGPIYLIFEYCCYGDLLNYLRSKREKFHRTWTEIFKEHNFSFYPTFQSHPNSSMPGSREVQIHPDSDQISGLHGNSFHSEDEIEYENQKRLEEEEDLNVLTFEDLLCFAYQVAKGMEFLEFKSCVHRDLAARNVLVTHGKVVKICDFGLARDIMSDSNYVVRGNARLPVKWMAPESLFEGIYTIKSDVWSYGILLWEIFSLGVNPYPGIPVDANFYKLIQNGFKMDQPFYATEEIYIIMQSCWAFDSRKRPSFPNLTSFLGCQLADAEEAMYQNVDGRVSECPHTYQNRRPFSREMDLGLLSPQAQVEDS
Description: (§3) Ba/F3-Flt3 (Minus IL3 or Plus IL3) (Cellular Proliferation Assay)
Cells were put in an incubator at 37° C. and 5% CO2. After 24 hours, 10 μl of Alamar Blue solution (0.5 mM K3Fe(CN)6, 0.5 mM KaFe(CN)6, 0.15 mM Resazurin and 100 mM Phosphate Buffer) was added to the wells, incubated for 4 hours at 37° C. and 5% CO2 before RFU's (Relative Fluorescence Units) (ex. 540 nm., em. 590 nm.) were measured in a flurorescence plate reader. […]
as §1, with “a 96” for “a 384”, “plate, 180” for “plate, 100 nl of compound dilution in DMSO was sprayed before adding 50”, “containing 10000” for “containing 20000”, “of Ba/F3-Flt3-transfected cells were pipette and 20 μl of compound dilution in DMSO was added.” for “of Ba/F3-KDR-transfected cells.”, “hours, 40” for “hours, 10”

[4] = tested on: Ba/F3-FGFR1-transfected cells in the presence of 10 ng/ml murine IL3; assay: Ba/F3-FGFR1 (plus IL3) cellular proliferation counterscreen, Alamar Blue; assay type: cell-based; details: Mus musculus; plus IL3, 384 well; read-out: BAF3-FGFR 1 (PLUS IL3) 384 well pIC50 (converted)
Description: Ba/F3-FGFR1 (Minus IL3 or Plus IL3) (Cellular Proliferation Assay)
as §1, with “Ba/F3-FGFR1-transfected” for “Ba/F3-KDR-transfected”
as §2
as §1, with “a 96” for “a 384”, “plate, 180” for “plate, 100 nl of compound dilution in DMSO was sprayed before adding 50”, “containing 10000” for “containing 20000”, “of Ba/F3-FGFR1-transfected cells were pipette and 20 μl of compound dilution in DMSO was added.” for “of Ba/F3-KDR-transfected cells.”, “hours, 40” for “hours, 10”

[5] = tested on: Ba/F3-Flt3-transfected cells in the presence of 10 ng/ml murine IL3; assay: Ba/F3-Flt3 (plus IL3) cellular proliferation counterscreen, Alamar Blue; assay type: cell-based; details: Mus musculus; plus 10 ng/ml murine IL3; read-out: BAF3-FLT3 (PLUS IL3) 384 well pIC50 (converted)
Description: as §3
as §1, with “Ba/F3-Flt3-transfected” for “Ba/F3-KDR-transfected”
as §2
as §1, with “a 96” for “a 384”, “plate, 180” for “plate, 100 nl of compound dilution in DMSO was sprayed before adding 50”, “containing 10000” for “containing 20000”, “of Ba/F3-Flt3-transfected cells were pipette and 20 μl of compound dilution in DMSO was added.” for “of Ba/F3-KDR-transfected cells.”, “hours, 40” for “hours, 10”

Sequence of Ba/F3-KDR-transfected cells (P35968 whole entry, change not shown): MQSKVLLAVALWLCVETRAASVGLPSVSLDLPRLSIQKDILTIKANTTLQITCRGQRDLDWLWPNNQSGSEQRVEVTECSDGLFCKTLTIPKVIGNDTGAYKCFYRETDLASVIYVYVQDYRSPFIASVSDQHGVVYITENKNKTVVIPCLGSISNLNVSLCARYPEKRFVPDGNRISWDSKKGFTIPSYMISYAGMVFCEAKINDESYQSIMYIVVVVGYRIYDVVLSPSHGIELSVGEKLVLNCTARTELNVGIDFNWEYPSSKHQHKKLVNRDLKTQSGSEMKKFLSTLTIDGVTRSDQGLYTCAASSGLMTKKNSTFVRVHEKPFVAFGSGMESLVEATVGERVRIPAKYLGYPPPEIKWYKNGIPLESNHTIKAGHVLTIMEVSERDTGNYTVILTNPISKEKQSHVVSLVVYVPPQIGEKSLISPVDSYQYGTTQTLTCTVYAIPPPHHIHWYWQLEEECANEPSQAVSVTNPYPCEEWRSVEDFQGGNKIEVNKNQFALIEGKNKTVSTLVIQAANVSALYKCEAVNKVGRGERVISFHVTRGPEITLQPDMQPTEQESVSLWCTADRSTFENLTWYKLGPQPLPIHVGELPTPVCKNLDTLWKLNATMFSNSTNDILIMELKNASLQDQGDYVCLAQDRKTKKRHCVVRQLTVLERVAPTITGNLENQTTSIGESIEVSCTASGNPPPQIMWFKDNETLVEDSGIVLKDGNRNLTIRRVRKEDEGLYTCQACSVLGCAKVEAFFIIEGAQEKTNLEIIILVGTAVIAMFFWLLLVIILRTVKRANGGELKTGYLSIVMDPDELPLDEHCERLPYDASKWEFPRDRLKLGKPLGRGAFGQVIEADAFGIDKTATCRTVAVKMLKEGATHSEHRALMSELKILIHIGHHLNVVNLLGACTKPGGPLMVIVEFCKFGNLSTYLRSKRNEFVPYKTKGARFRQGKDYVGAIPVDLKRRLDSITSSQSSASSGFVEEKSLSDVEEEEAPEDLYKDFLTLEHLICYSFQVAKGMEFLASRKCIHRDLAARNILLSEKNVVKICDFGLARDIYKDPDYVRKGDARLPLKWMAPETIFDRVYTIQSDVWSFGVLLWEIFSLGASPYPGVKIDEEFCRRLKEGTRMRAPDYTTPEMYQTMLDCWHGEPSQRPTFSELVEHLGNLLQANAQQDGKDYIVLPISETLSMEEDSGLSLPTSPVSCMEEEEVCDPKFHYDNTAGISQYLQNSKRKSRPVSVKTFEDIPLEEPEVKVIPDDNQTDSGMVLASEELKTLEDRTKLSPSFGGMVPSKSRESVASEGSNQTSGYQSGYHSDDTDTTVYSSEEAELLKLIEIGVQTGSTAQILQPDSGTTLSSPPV
Sequence of KDR (h) (VEGFR2) (P35968 20-1356): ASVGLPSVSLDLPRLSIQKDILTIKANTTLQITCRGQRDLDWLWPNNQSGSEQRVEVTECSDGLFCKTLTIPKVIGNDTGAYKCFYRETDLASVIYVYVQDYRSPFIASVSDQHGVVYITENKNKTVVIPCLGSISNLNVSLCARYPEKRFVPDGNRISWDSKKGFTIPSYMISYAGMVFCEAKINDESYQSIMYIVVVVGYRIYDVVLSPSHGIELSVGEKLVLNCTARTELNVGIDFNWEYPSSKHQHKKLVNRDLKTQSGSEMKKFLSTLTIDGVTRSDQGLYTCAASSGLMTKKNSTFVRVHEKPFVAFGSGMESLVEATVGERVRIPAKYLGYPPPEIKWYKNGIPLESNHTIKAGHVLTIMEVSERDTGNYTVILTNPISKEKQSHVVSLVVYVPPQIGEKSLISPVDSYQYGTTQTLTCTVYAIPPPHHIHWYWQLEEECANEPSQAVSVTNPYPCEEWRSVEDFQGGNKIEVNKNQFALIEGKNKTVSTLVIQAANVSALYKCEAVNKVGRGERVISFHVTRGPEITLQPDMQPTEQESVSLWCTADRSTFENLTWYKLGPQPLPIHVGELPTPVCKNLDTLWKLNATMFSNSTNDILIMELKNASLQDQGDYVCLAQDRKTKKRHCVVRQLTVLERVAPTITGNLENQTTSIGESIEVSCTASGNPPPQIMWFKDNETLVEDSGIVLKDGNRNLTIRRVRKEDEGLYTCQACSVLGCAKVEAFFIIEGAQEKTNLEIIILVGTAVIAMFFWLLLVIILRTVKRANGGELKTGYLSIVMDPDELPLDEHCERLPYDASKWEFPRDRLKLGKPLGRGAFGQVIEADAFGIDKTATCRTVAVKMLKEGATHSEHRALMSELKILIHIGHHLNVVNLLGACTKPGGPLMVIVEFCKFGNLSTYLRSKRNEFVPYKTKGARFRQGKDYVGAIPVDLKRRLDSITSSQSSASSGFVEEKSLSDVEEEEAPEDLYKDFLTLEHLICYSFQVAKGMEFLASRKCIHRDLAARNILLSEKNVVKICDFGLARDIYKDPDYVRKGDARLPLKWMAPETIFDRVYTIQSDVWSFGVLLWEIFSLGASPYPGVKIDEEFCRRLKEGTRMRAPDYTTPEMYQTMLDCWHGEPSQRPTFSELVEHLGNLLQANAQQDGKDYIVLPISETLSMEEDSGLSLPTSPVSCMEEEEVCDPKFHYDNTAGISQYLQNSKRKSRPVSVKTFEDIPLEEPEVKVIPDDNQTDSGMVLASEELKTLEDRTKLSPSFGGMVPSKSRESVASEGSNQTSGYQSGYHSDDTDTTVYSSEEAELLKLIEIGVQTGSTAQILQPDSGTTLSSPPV

Compound | IC50 ([1]; plus IL3, 96 well) [µM] | BAF3-KDR (MIN IL3) 384 well pIC50 ([2]; minus IL3, 384 well) | IC50 (KDR (h) (VEGFR2)) [µM] | melting point [°C] | BAF3-FLT3 (MIN IL3) 96 well pIC50 ([3]; minus IL3, 96 well) | BAF3-FLT3 (MIN IL3) 384 well pIC50 ([3]; minus IL3, 384 well) | IC50 ([1]; plus 10 ng/ml murine IL3) [µM] | BAF3-KDR (MIN IL3) 96 well pIC50 ([2]; minus IL3) | BAF3-KDR (MIN IL3) 384 well pIC50 ([2]; minus IL3) | BAF3-FLT3 (MIN IL3) 96 well pIC50 ([3]; minus IL3) | BAF3-FLT3 (MIN IL3) 384 well pIC50 ([3]; minus IL3) | IC50 [4] [µM] | IC50 [5] [µM]
COc1cc(OC)cc(N(CC2CC2)c2ccc3ncc(-c4ccncc4)nc3c2)c1 [Compound 89] | > 10 | <5 | 1.91 | 105 | <5 | <5 |  |  |  |  |  |  | 
COc1cc(OC)cc(N(CC2CC2)c2ccc3ncc(-c4ccc(OC)nc4)nc3c2)c1 [Compound 91] | > 10 | <5 | > 10 | 116 | <5 | <5 |  |  |  |  |  |  | 
COc1cc(OC)cc(N(CC2CC2)c2ccc3ncc(-c4ccc(N)nc4)nc3c2)c1 [Compound 94] |  |  | 2.14 | 185 |  |  | > 10 | <5 | <5 | <5 | <5 |  | 
COc1cc(OC)cc(N(CCCO)c2ccc3ncc(-c4cnc(OC)nc4)nc3c2)c1 [Compound 141] |  |  | > 1 |  |  |  |  |  | <5 |  |  | > 10 | > 10
